# Values quoted from earlier work as cited in patent US11866384B2, “Compositions and their use in agricultural applications” (SYNSUS PRIVATE LABEL PARTNERS, LLC, priority 2018, dated 2024).
substance,measurement,value
dicyandiamide,solubility in water,about 41 grams per liter
